Values quoted from earlier work as cited in US10821075B1, “Compositions for topical application of a medicaments onto a mammalian body surface” (priority 2017, dated 2020).

Details: weak acid drug

## CC(C(=O)O)c1cccc(C(=O)c2ccccc2)c1 (stereo not shown) [ketoprofen]
  pKa: 4.30
